Where two headings read alike, the source gives them in different places.
What was measured:
[1] = CTG LD50 (cytotoxicity)
[2] = system: HIV-1 (H9IIIB virus); test: Viking assay: multiple round HIV-1 infection assay in MT4-GFP cells; type: cell-based
Protocol: Assessing Antiviral Potency in a Multiple Round HIV-1 Infection Assay
The antiviral activity of the tenofovir prodrugs was assessed in a Viking assay performed as follows. HIV-1 replication was monitored using MT4-gag-GFP clone D3 (hereafter designate MT4-GFP), which are MT-4 cells modified to harbor a GFP reporter gene, the expression of which is dependent on the HIV-1 expressed proteins tat and rev. Productive infection of an MT4-GFP cell with HIV-1 results in GFP expression approximately 24 h post-infection.
MT4-GFP cells were maintained at 37° C./5% CO2/90% relative humidity in RPMI 1640 supplemented with 10% fetal bovine serum, 100 U/ml penicillin/streptomycin, and 400 μg/ml G418 to maintain the reporter gene. For infections, MT4-GFP cells were placed in the same medium lacking G418 and infected overnight with H9IIIB virus at an approximate multiplicity of infection of 0.01 in the same incubation conditions. Cells were then washed and resuspended in either RPMI 1640 containing 10% normal human serum at 1.6×10^5 cells/mL (10% NHS conditions) or in 100% normal human serum at 2×10^5 cells/mL (100% NHS conditions). Compound plates were prepared by dispensing compounds dissolved in DMSO into wells of 384 well poly D lysine-coated plates (0.2 μl/well) using an ECHO acoustic dispenser. Each compound was tested in a 10 point serial 3-fold dilution (typical final concentrations: 4.2 μM-0.21 nM). Controls included no inhibitor (DMSO only) and a combination of three antiviral agents (efavirenz, indinavir, and the integrase strand transfer inhibitor N1-ethyl-N1-((7S,10R)-2-((4-fluorobenzyl)-carbamoyl)-3-hydroxy-7-methoxy-4-oxo-4,6,7,8,9,10-hexahydropyrimido-[1,2-a]azepin-10-yl)-N2,N2-dimethyloxalamide at final concentrations of 4 μM each). Cells were added (50 μL/well) to compound plates and the infected cells were maintained at 37° C./5% CO2/90% relative humidity.
Infected cells were quantified at two time points, ˜48 h and ˜72 h post-infection, by counting the number of green cells in each well using an Acumen eX3 scanner. The increase in the number of green cells over ˜24 h period gives the reproductive ratio, R0, which is typically 5-15 and has been shown experimentally to be in logarithmic phase (data not shown) Inhibition of R0 is calculated for each well, and IC50s determined by non-linear 4-parameter curve fitting.

[3] = system: hepatitis virus C (HCV) genotype 1b; test: HCV subgenomic replicon assay (RHEPTAQ), genotype 1b; type: cell-based
Excerpt: (§1) Table 3 and Table 4 summarize the measured activities of these prodrugs as assessed in a subgenomic replicon assay (RHEPTAQ), against genotypes 1a, 1b and 2a.

[4] = system: hepatitis virus C (HCV) genotype 1a; test: HCV subgenomic replicon assay (RHEPTAQ), genotype 1a; type: cell-based
Excerpt: as §1

[5] = system: hepatitis virus C (HCV) genotype 2a; test: HCV subgenomic replicon assay (RHEPTAQ), genotype 2a; type: cell-based
Excerpt: as §1

[6] = Tox: EdU/CellCount CC50; type: cell-based
[7] = system: peripheral blood mononuclear cells (PBMCs); conditions: pbmc; cited from earlier work
[8] = system: HIV-1; conditions: HIV-1, PBMCs; cited from earlier work
[9] = system: HCV GT1b; conditions: Cho et al. 2012, Table 1; cited from earlier work
[10] = Human immunodeficiency virus 1, read-out: Viking IP
[11] = RHEPTAQ replicon, genotype 1b, read-out: EC50(1b)
[12] = RHEPTAQ replicon, genotype 1b, read-out: EC90(1b)
[13] = RHEPTAQ replicon, genotype 1a; read-out: EC50(1a)
[14] = RHEPTAQ replicon, genotype 1a; read-out: EC90(1a)
[15] = RHEPTAQ replicon, genotype 2a, read-out: EC50(2a)
[16] = RHEPTAQ replicon, genotype 2a, read-out: EC90(2a)
[17] = Human immunodeficiency virus 1, inhibition of reproductive ratio R0, MT4-GFP cells infected with H9IIIB, serum condition not stated, read-out: Viking IP
[18] = Hepatitis C virus, RHEPTAQ replicon, genotype 1b, read-out: EC50(1b)
[19] = Hepatitis C virus, RHEPTAQ replicon, genotype 1b, read-out: EC90(1b)
[20] = Hepatitis C virus, RHEPTAQ replicon, genotype 1a; read-out: EC50(1a)
[21] = Hepatitis C virus, RHEPTAQ replicon, genotype 1a; read-out: EC90(1a)
[22] = Hepatitis C virus, RHEPTAQ replicon, genotype 2a, read-out: EC90(2a)
[23] = Hepatitis C virus, read-out: EC50(2a), RHEPTAQ replicon, genotype 2a
[24] = Hepatitis C virus, read-out: EC90(2a), RHEPTAQ replicon, genotype 2a

## COc1cccc(OP(=O)(CO[C@H](C)Cn2cnc3c(N)ncnc32)OC2CSSC[C@@H]2OCc2ccccc2)c1 (some centres unmarked) [Entry 13]
[1]
  CTG LD50: >8.403 µM
[2]; [10]
  IC50: 1.81 µM

## C[C@@]1(O)[C@@H]2OP(=O)(OC3CSSC[C@@H]3OCc3ccccc3)OCC2O[C@H]1n1ccc(=O)[nH]c1=O (single isomer, unassigned) [drawing 109 isomer 1]
[3]; [11]
  EC50: 0.11 µM
[3]; [12]
  EC90: 0.383 µM
[4]; [13]
  EC50: 0.07 µM
[4]; [14]
  EC90: 0.233 µM
[5]; [15]
  EC50: 0.09 µM
[5]; [16]
  EC90: 0.442 µM

## C[C@@]1(O)[C@@H]2OP(=O)(OC3CSSC[C@@H]3OCc3ccccc3)OCC2O[C@H]1n1ccc(=O)[nH]c1=O (single isomer, unassigned) [drawing 112]
[3]; Hepatitis C virus, Table 4, genotype 1b, read-out: Replicon: EC50 (1b)
  EC50: 0.11 µM
[4]; Hepatitis C virus, Table 4, genotype 1a; read-out: Replicon: EC50 (1a)
  EC50: 0.07 µM
[6]; CellCount readout, read-out: Tox: CellCount CC50
  CC50: 8.5 µM
[6]; EdU readout, read-out: Tox: EdU CC50
  CC50: 4.1 µM
[5]; Hepatitis C virus, Table 4, genotype 2a, read-out: Replicon: EC50 (2a)
  EC50: 0.09 µM

## C[C@@]1(O)[C@@H]2OP(=O)(OC3CSSC[C@@H]3OCc3ccccc3)OCC2O[C@H]1n1ccc(=O)[nH]c1=O (single isomer, unassigned) [drawing 109 isomer 2]
[3]; [11]
  EC50: 0.037 µM
[3]; [12]
  EC90: 0.245 µM
[4]; [13]
  EC50: 0.05 µM
[4]; [14]
  EC90: 0.154 µM
[5]; [15]
  EC50: 0.044 µM
[5]; [16]
  EC90: 0.244 µM

## C[C@H](Cn1cnc2c(N)ncnc21)OCP(=O)(O)OC1CSSC[C@H]1OCc1ccccc1 (some centres unmarked) [Entry 16]
[2]; [17]
  IC50: > 8.4 µM

## CC(Cn1cnc2c(N)ncnc21)OCP(=O)(O)OP(=O)(O)OP(=O)(O)O (stereo in doubt) [tenofovir diphosphate]
[7]
  half-life in peripheral blood mononuclear cells (PBMCs): > 100 h

## COCCOCCOCCO[C@H]1CSSCC1OP1(=O)OCC2O[C@@H](n3ccc(=O)[nH]c3=O)[C@](C)(O)[C@@H]2O1 (single isomer, unassigned) [drawing 111 isomer 3 and 4]
[3]; [11]
  EC50: 4 µM
[3]; [12]
  EC90: 12 µM
[4]; [13]
  EC50: 7 µM
[4]; [14]
  EC90: 16 µM
[5]; [15]
  EC50: 14 µM
[5]; [16]
  EC90: 37 µM

## C[C@H](Cn1cnc2c(N)ncnc21)OCP(=O)(O)O [tenofovir]
[8]
  EC50: 1.2 µM

## Cc1ccccc1OP(=O)(CO[C@H](C)Cn1cnc2c(N)ncnc21)OC1CSSC[C@@H]1OCc1ccccc1 (some centres unmarked) [Entry 10]
[1]
  CTG LD50: >42.02 µM
[2]; [10]
  IC50: 2.92 µM

## C[C@H](Cn1cnc2c(N)ncnc21)OCP(=O)(Oc1ccccc1)OC1CSSC[C@H]1OCc1ccccc1 (some centres unmarked) [Entry 14]
[1]
  CTG LD50: >8.403 µM
[2]; [10]
  IC50: 1.27 µM

## COCCOCCOCCO[C@H]1CSSCC1OP1(=O)OCC2O[C@@H](n3ccc4c(N)ncnc43)[C@](C)(O)[C@@H]2O1 (some centres unmarked)
[3]; [18]
  EC50: 0.183 µM
[3]; [19]
  EC90: 0.448 µM
[4]; [20]
  EC50: 1 µM
[4]; [21]
  EC90: 3.3 µM
[5]; Hepatitis C virus, RHEPTAQ replicon, genotype 2a, read-out: EC50(2a)
  EC50: 0.249 µM
[5]; [22]
  EC90: 0.896 µM

## Cc1cccc(OP(=O)(CO[C@H](C)Cn2cnc3c(N)ncnc32)OC2CSSC[C@@H]2OCc2ccccc2)c1 (some centres unmarked) [Entry 8]
[1]
  CTG LD50: >42.02 µM
[2]; [10]
  IC50: 1.12 µM

## C[C@H](Cn1cnc2c(N)ncnc21)OCP(=O)(Oc1ccccc1F)OC1CSSC[C@@H]1OCc1ccccc1 (some centres unmarked) [Entry 2]
[1]
  CTG LD50: >8.403 µM
[2]; [10]
  IC50: 0.605 µM

## Cc1ccc(OP(=O)(CO[C@H](C)Cn2cnc3c(N)ncnc32)OC2CSSC[C@@H]2OCc2ccccc2)cc1 (some centres unmarked) [Entry 9]
[1]
  CTG LD50: >42.02 µM
[2]; [10]
  IC50: 1.64 µM

## C[C@@]1(O)[C@H](O)[C@@H](COP(=O)(O)OP(=O)(O)OP(=O)(O)O)O[C@H]1n1ccc(=O)[nH]c1=O [triphosphate 2′-C-Me-U]
[9]
  EC50: 1.32 µM

## COc1ccc(OP(=O)(CO[C@H](C)Cn2cnc3c(N)ncnc32)OC2CSSC[C@@H]2OCc2ccccc2)cc1 (some centres unmarked) [Entry 11]
[1]
  CTG LD50: >42.02 µM
[2]; [10]
  IC50: 2.92 µM

## COCCOCCOCCO[C@H]1CSSCC1OP1(=O)OCC2O[C@@H](n3ccc(=O)[nH]c3=O)[C@](C)(O)[C@@H]2O1 (single isomer, unassigned) [drawing 111 isomer 1 and 2]
[3]; [18]
  EC50: 2 µM
[3]; [19]
  EC90: 8 µM
[4]; [20]
  EC50: 4 µM
[4]; [21]
  EC90: 9 µM
[5]; [22]
  EC90: 21 µM
[5]; [15]
  EC50: 6 µM

## C[C@H](Cn1cnc2c(N)ncnc21)OCP(=O)(Oc1ccccc1)OC1CSSC[C@@H]1OCc1ccccc1 (some centres unmarked) [Entry 1]
[1]
  CTG LD50: >8.403 µM
[2]; [10]
  IC50: 1.27 µM

## C[C@H](Cn1cnc2c(N)ncnc21)OCP(=O)(Oc1ccc(Cl)cc1)OC1CSSC[C@@H]1OCc1ccccc1 (some centres unmarked) [Entry 5]
[1]
  CTG LD50: >8.403 µM
[2]; [10]
  IC50: 1.59 µM

## C[C@H](Cn1cnc2c(N)ncnc21)OCP(=O)(Oc1ccccc1Cl)OC1CSSC[C@@H]1OCc1ccccc1 (some centres unmarked) [Entry 7]
[1]
  CTG LD50: >8.403 µM
[2]; [10]
  IC50: 1.59 µM

## COc1ccccc1OP(=O)(CO[C@H](C)Cn1cnc2c(N)ncnc21)OC1CSSC[C@@H]1OCc1ccccc1 (some centres unmarked) [Entry 12]
[1]
  CTG LD50: >39.78 µM
[2]; [10]
  IC50: 1.55 µM

## C[C@H](Cn1cnc2c(N)ncnc21)OCP(=O)(Oc1cccc(Cl)c1)OC1CSSC[C@@H]1OCc1ccccc1 (some centres unmarked) [Entry 6]
[1]
  CTG LD50: >8.403 µM
[2]; [10]
  IC50: 1.88 µM

## C[C@H](Cn1cnc2c(N)ncnc21)OCP(=O)(O)OC1CSSC[C@@H]1OCc1ccccc1 (some centres unmarked) [Entry 15]
[2]; [17]
  IC50: > 8.4 µM

## C#CCO[C@H]1CSSCC1OP(=O)(NCc1ccccc1)OCC1O[C@@H](n2ccc3c(N)ncnc32)[C@](C)(O)[C@@H]1O (some centres unmarked)
[3]; Hepatitis C virus, read-out: EC50(1b), RHEPTAQ replicon, genotype 1b
  EC50: 8.5 µM
[3]; Hepatitis C virus, read-out: EC90(1b), RHEPTAQ replicon, genotype 1b
  EC90: 17.7 µM
[4]; [20]
  EC50: 12.8 µM
[4]; [21]
  EC90: 25.5 µM
[5]; [23]
  EC50: 1.9 µM
[5]; [24]
  EC90: 7.9 µM

## C[C@@]1(O)[C@@H]2OP(=O)(OC3CSSC[C@@H]3OCc3ccccc3)OCC2O[C@H]1n1ccc(=O)[nH]c1=O (single isomer, unassigned) [drawing 109 isomer 3 and 4]
[3]; [11]
  EC50: 0.362 µM
[3]; [12]
  EC90: 0.783 µM
[4]; [13]
  EC50: 0.305 µM
[4]; [14]
  EC90: 0.782 µM
[5]; [15]
  EC50: 0.315 µM
[5]; [16]
  EC90: 1.07 µM

## C[C@@]1(O)[C@@H]2OP(=S)(OC3CSSC[C@@H]3OCc3ccccc3)OCC2O[C@H]1n1ccc(=O)[nH]c1=O (single isomer, unassigned) [drawing 110 isomer 1 and 2]
[4]; read-out: EC50(1a); RHEPTAQ replicon, genotype 1a
  EC50: 4 µM
[4]; read-out: EC90(1a); RHEPTAQ replicon, genotype 1a
  EC90: 8 µM

## C[C@H](Cn1cnc2c(N)ncnc21)OCP(=O)(Oc1ccc(F)cc1)OC1CSSC[C@@H]1OCc1ccccc1 (some centres unmarked) [Entry 4]
[1]
  CTG LD50: >8.403 µM
[2]; [10]
  IC50: 2 µM

## C[C@@]1(O)[C@H](O)[C@@H](CO)O[C@H]1n1ccc(=O)[nH]c1=O [2′-C-Me-U, 2′-C-methyl-uridine]
[9]
  EC50: 15.2 µM

## C#CCO[C@H]1CSSCC1OP1(=O)OCC2O[C@@H](n3ccc4c(N)ncnc43)[C@](C)(O)[C@@H]2O1 (some centres unmarked)
[3]; [18]
  EC50: 0.078 µM
[3]; [19]
  EC90: 0.318 µM
[4]; [20]
  EC50: 0.159 µM
[4]; [21]
  EC90: 0.991 µM
[5]; [23]
  EC50: 0.135 µM
[5]; [24]
  EC90: 0.115 µM

## C[C@H](Cn1cnc2c(N)ncnc21)OCP(=O)(Oc1cccc(F)c1)OC1CSSC[C@@H]1OCc1ccccc1 (some centres unmarked) [Entry 3]
[1]
  CTG LD50: >42.02 µM
[2]; [10]
  IC50: 0.62 µM

From patent US9624249B2, “Nucleoside kinase bypass compositions and methods” (Merck Sharp & Dohme Corp., priority 2013, dated 2017)
